Source: patent US12343371B2, “Method for suppressing or alleviating primary or secondary progressive multiple sclerosis (PPMS or SPMS) using a sustained release depot formulation comprising glatiramer acetate” (MAPI PHARMA LTD., priority 2017, dated 2025)

Tested on: primary progressive EAE (PP-EAE) in C57BL/6 female mice
Test: MOG 35-55 induced primary progressive EAE (PP-EAE) in mice: clinical score, body weight, survival
Details: for Body weight compared with untreated control (FIG. 2): P<0.05
[1] = C57BL/6 mice, PP-EAE, GA Depot 4 mg IM Day 0, 1, Copaxone 2 mg SC Days 0-8, N = 20/group, +/- standard error
[2] = C57BL/6 mice, PP-EAE, GA Depot 4 mg IM Day 0, 1, Copaxone 2 mg SC Days 0-8, N = 20/group, +/- standard error, listed as Copaxone®

Protocol: Animals were given food and water ad-libitum throughout the experiment. […] A 21G needle was used for injections in mice. […] Measurements: Body weight was measured every two days from day 0 to day 28. EAE was assessed by clinical scoring of the mice once daily from Day 0 to Day 28 post immunization (Table 2). For analysis, dead animals received clinical score of 5 and the weight recorded at the last measurement before animal death.
The following calculations were derived from clinical score raw data: mean maximum score is the mean of the highest scores noted for each mouse in a specific group up to indicated day of analysis; mean disease duration and mean day of onset were calculated as follows: Mean Disease Duration=Sum of (day of analysis−day of disease onset for each mouse)/(number of mice per group); Mean Day of Onset=(sum of day of disease onset of each mouse)/(number of mice per group). Area under the curve (AUC) of clinical score was calculated using Microsoft Excel and represents disease burden.
Glatiramer Acetate Depot (GA Depot): GA Depot was suspended in water for injection (WFI) and immediately injected intramuscularly (IM) at the indicated dose. Dose of GA Depot are given according to amount of active ingredient (i.e. GA Depot 4 mg contains 4 mg GA).
Statistical analysis: Data was analyzed using Microsoft Excel. Each data set was analyzed using single-factor analysis of variance (ANOVA) followed by one tailed student's T-test.

glatiramer acetate [Copaxone ®]
Survival Rate at Day 28 (C57BL/6 mice, PP-EAE, GA Depot 4 mg IM Day 0, 1, Copaxone 2 mg SC Days 0-8, N = 20/group): 90%
AUC Clinical Score [1]: 26.83 ± 2.49
Mean Day of Onset [1]: 12.35 ± 0.23
Mean Disease Duration [1]: 15.65 ± 0.23
AUC Clinical Score [2]: significantly reduced
Mean Day of Onset [2]: significantly reduced
Mean Disease Duration [2]: significantly reduced
Maximum Mean Disease Score (C57BL/6 mice, PP-EAE, GA Depot 4 mg IM Day 0, 1, Copaxone 2 mg SC Days 0-8, score 0-5, N = 20/group, +/- standard error): 2.25 ± 0.22
Body weight compared with untreated control (FIG. 2) (day 21): significantly higher
Body weight compared with untreated control (FIG. 2) (days 10 to 17 following immunization): significantly higher
mean clinical score compared with saline group (FIG. 1) (days 11-19 and day 20, p<0.05, GA Depot 4 mg, Copaxone 2 mg days 0-8): mean clinical score of the saline group was significantly higher
